Laboratory results from patent US12440567B2, “Aqueous antibody formulation stabilized by antioxidants for parenteral administration” (AMGEN INC., priority 2007, dated 2025).

Tests used:
EPO binding to D11 = assay: EPO binding activity after metal catalyzed oxidation (Fe-EDTA, H2O2, ascorbate); parameters: species or system human; conditions: 5 mM ferulic acid; EPO 336 μg/mL in HBS pH 7.0; 0.2 mM Fe-EDTA, 0.3% H2O2, 1 mM ascorbate, 2 hours 37° C.
Description: The binding activity of therapeutic protein to a ligand (e.g. to an antibody or binding partner, or, in cases where the therapeutic was an antibody, binding activity to the specific target antigen or to protein A) was determined as follows. Carboxymethyl-dextran chains on a CM5 gold sensor chip were activated with 1-ethyl-3-(3-dimethylaminopropyl)-carbodiimide HCl (EDC) and N-hydroxysuccinimide (NETS) at a flow rate of 5 μL/min. The therapeutic protein-binding ligand of interest was injected until the desired immobilization level was achieved (above 5000 response units). Three different therapeutic protein-binding ligands were measured—Antibody A's target antigen, Protein A, and D11 (an antibody that binds to erythropoietin). For introduction of Antibody A's target antigen to the column, an 80 μg injection of the antigen, diluted in 10 mM Na Acetate pH 4.0 was introduced; for Protein A, a 4 μg injection of Protein A, diluted in 10 mM Na Acetate pH 4.5, was introduced; for D11, a […] injection of D11, diluted in 10 mM Na Acetate pH 5.0 was introduced. The remaining activated groups were blocked with 1.0 M ethanolamine-HCl, pH 8.5.
A standard curve was prepared by using native forms of the therapeutic protein of interest. […]

[1] = test system: Antibody A binding to protein A; assay: Binding of Antibody A to protein A (CM5 sensor chip) after UV-B exposure of the formulation; conditions: 20 mM antioxidant; pH 5.20 acetate buffer; 302 nm UV light over 24 hours
Description: (§1) For the examples below involving exposure to UVB radiation, each sample was exposed to UVB light (λ≈302 nm) for varying times, using a UVP 8W model UVLMS-38 lamp at 4° C. The formulations were then analyzed using size exclusion chromatography high pressure liquid chromatography (SEC-HPLC). Aggregation (measured via SEC-HPLC analysis) and binding (measured using CM5 gold sensor chips) were measured to determine the effect of the antioxidant on aggregation and bioactivity of the therapeutic protein. The binding activity of therapeutic protein to a ligand (e.g. to an antibody or binding partner, or, in cases where the therapeutic was an antibody, binding activity to the specific target antigen or to protein A) was determined as follows. […] The therapeutic protein-binding ligand of interest was injected until the desired immobilization level was achieved (above 5000 response units). Three different therapeutic protein-binding ligands were measured—Antibody A's target antigen, Protein A, and D11 (an antibody that binds to erythropoietin). […] The remaining activated groups were blocked with 1.0 M ethanolamine-HCl, pH 8.5. […] Various UV-stressed antibody formulations were also diluted in HBS-EP buffer (pH 7.4) to a concentration within the standard curve region, and injected to quantitate the loss of bioactivity to its respective ligand-binding partner.

[2] = test system: anti-streptavidin (IgG2 antibody); assay: Thermal aggregation of anti-streptavidin at 52° C. for 10 days; format: physicochemical; conditions: 10 mM antioxidant; 50 mM sodium acetate pH 5.00; no UV
Description: The SEC-HPLC conditions were as follows: a G3000 TOSOH SWXL column was used and the flowrate was set at 0.5 mL/min. […] Anti-streptavidin was formulated in 50 mM sodium acetate at pH 5.00. These formulations were not exposed to UV radiation but assessed on their thermal stability.

[3] = test system: Antibody A binding to its target antigen; assay: Binding of Antibody A to its target antigen (CM5 sensor chip) after UV-B exposure of the formulation; conditions: 20 mM antioxidant; pH 5.20 acetate buffer; 302 nm UV light over 24 hours
Description: as §1

SMILES: COc1cc(/C=C/C(=O)O)ccc1O [ferulic acid]
- EPO binding activity preserved (EPO binding to D11): 100%
- binding of Antibody A to protein A after UV exposure [1]: preserved
- aggregation of anti-streptavidin after 10 days at 52° C. [2]: contributed to the aggregation of anti-streptavidin
- binding of Antibody A to its target antigen after UV exposure [3]: preserved
